For one assay, the system named is TNF-α. The assay can be described thus: Whole bovine blood assay, LPS-induced TNF-α. The settings on record: fresh whole bovine blood, LPS stimulant; top drug concentration 250 μM. Format: cell-based. On the procedure:
Whole Blood Assay-Fresh whole bovine blood samples were collected into heparinized vacutainer tubes. Assay plates were prepared with 25 μL of drug diluted in PBS at varying concentration in 96 round bottom wells, then 225 μL of blood was added and plates incubated at 37° C. for 4 hours. Cells were stimulated with LPS (or PBS for controls) by adding 25 μL to the plates at a final concentration of 1 μg/mL and incubated at 37° C. for 18 hours. To collect plasma, plates were centrifuged at 2,000×g for 10 minutes and 100 μL of supernatant was transferred to a 96 well polypropylene plate that was sealed and stored at −80° C. Samples were assayed for cytokines using the Meso Scale Discovery (MSD) platform (described below). This same MSD platform was used to assess cytokines in the plasma collected directly from drug treated animals.
Cytokine Detection—An MSD U-Plex cytokine assay was developed following the MSD U-Plex protocol guide and included biotinylated capture antibodies against: bovine Interleukin (IL)-1β (Biorad), bovine IL-6 (R&D Systems) and bovine tumor necrosis factor (TNF)-α (R&D Systems). […] Assay calibrators (Kingfisher) were diluted to a concentration of […] in control lithium heparin plasma, followed by 4-fold serial dilutions into plasma. […] Antibodies were used at the following concentrations: anti-IL-1β at 1 μg/mL, anti-IL-6 at 1 μg/mL and anti-TNF-α at 0.5 μg/mL. Cytokines were quantified according to manufacturer's instructions using a chemiluminescent readout. In brief, 0.5 mL of all biotinylated antibodies were diluted to 10 μg/mL with Diluent 100 and paired to their respective linkers by adding 750 μL of supplied Linker solution and incubated for 30 minutes followed by addition of Stop solution for another 30 minutes. The linked antibodies were then diluted 10-fold into Stop solution. Plates were coated by adding 50 μL of antibody solutions per well and incubated covered and shaking for 1 hour at room temperature. Plates were washed three times with PBS/Tween20 prior to samples or standards being added at 30 μL per well and incubated as above. Plates were washed three times before detection antibodies were added along with 2% goat and rabbit serum to block and incubated same as above. Plates were washed a further three times before addition of 150 μL 2X Read buffer and read immediately on the SI6000 instrument (MSD). For soluble protein levels, a BCA protein kit (Thermofisher) was used. The cytokine concentrations (pg/mL) were normalized to the total protein levels for each sample. [Bassel et. al., BMC Veterinary Research (2020) 16:168]
Therefore, a fresh whole bovine blood assay was developed with LPS as a stimulant (TLR-4 agonist) and with IL-1β and TNF-α as the read-out. Compounds of the invention were evaluated against a positive control for their ability to inhibit LPS-induced IL-1β and TNF-α as an overall evaluation of relative potency and modulation of target pathways.
TNFα is a cell signaling protein, cytokine, that plays a key role in both acute and chronic inflammation. In the bovine whole blood in vitro screening assay the inhibition of TNFα as induced by stimulation by lipopolysaccharide (LPS) and as measured by half the maximal inhibitory concentration (IC50) is recognized as the primary biomarker of immunomodulation potency upon pretreatment with the compounds of the invention. IL-1 B is a mediator of the inflammation response and is involved in a number of cellular activities including proliferation, differentiation and apoptosis. IL-1ß is also released upon cellular stress or cytotoxicity or upon TLR stimulation. […] In order to estimate a therapeutic index from the in vitro assay a differential between the TNFα IC50 (immunomodulation potency) versus the perceived cellular toxicity concentration (IL-1β release or overstimulation) was utilized.

For the next assay, the system named is IL-6. The assay can be described thus: Whole bovine blood assay, LPS-induced IL-6. It counts as cell-based. The settings on record: fresh whole bovine blood, LPS stimulant; top drug concentration 250 μM.

Each structure is given as a SMILES string.

One may read the IC50 as the concentration that gives 50% inhibition.

For the compound `CC[C@H]1OC(=O)[C@H](C)[C@@H](O[C@H]2C[C@@](C)(OC)[C@](O)(CNCC(C)C)[C@H](C)O2)[C@H](C)[C@@H](O[C@@H]2O[C@H](C)C[C@H](N(C)S(=O)(=O)Nc3ccc(C(F)(F)F)cc3)[C@H]2O)[C@](C)(O)C[C@@H](C)CN[C@H](C)[C@@H](O)[C@]1(C)O` [Example B-85], the figures for the IC50 in the assay with TNF-α and in the assay with IL-6 were 9 µM and 26 µM, respectively.
In the same order, the values of `CC[C@H]1OC(=O)[C@H](C)[C@@H](O[C@H]2C[C@@](C)(OC)[C@](O)(CN3CCCCC3)[C@H](C)O2)[C@H](C)[C@@H](O[C@@H]2O[C@H](C)C[C@H](N(CC(C)C)S(=O)(=O)c3ccc(Cl)cc3)[C@H]2O)[C@](C)(O)C[C@@H](C)CN[C@H](C)[C@@H](O)[C@]1(C)O` [Example C-42] are 6 µM and 6 µM.
In the same order, the values of `CCCNC[C@]1(O)[C@H](C)O[C@@H](O[C@H]2[C@H](C)[C@@H](O[C@@H]3O[C@H](C)C[C@H](N(C)S(=O)(=O)c4ccccc4NC4CC4)[C@H]3O)[C@](C)(O)C[C@@H](C)CN[C@H](C)[C@@H](O)[C@](C)(O)[C@@H](CC)OC(=O)[C@@H]2C)C[C@@]1(C)OC` [Example B-63] are 9 µM and 10 µM.
In the same order, the values of `CC[C@H]1OC(=O)[C@H](C)[C@@H](O[C@H]2C[C@@](C)(OC)[C@](O)(CNCc3ccc(C(F)(F)F)cc3)[C@H](C)O2)[C@H](C)[C@@H](O[C@@H]2O[C@H](C)C[C@H](N(C)S(=O)(=O)c3ccc(Cl)cc3)[C@H]2O)[C@](C)(O)C[C@@H](C)CN[C@H](C)[C@@H](O)[C@]1(C)O` [Example B-25] are 5 µM and 17 µM.
For `CC[C@H]1OC(=O)[C@H](C)[C@@H](O[C@H]2C[C@@](C)(OC)[C@](O)(CNC3CC3)[C@H](C)O2)[C@H](C)[C@@H](O[C@@H]2O[C@H](C)C[C@H](N(C)S(=O)(=O)Nc3ccc(C(F)(F)F)cc3)[C@H]2O)[C@](C)(O)C[C@@H](C)CN[C@H](C)[C@@H](O)[C@]1(C)O` [Example B-70], the half-inhibitory concentration (IC50) in the assay with TNF-α was 4 µM; with IL-6 it was 13 µM.
Regarding `CC[C@H]1OC(=O)[C@H](C)[C@@H](O[C@H]2C[C@@](C)(OC)[C@](O)(CN3CCCCC3)[C@H](C)O2)[C@H](C)[C@@H](O[C@@H]2O[C@H](C)C[C@H](N(C)S(=O)(=O)Nc3ccc(C(C)(C)C)cc3)[C@H]2O)[C@](C)(O)C[C@@H](C)CN[C@H](C)[C@@H](O)[C@]1(C)O` [Example C-22], the IC50 worked out at 4 µM in the assay on TNF-α and 6 µM with IL-6.
As for `CC[C@H]1OC(=O)[C@H](C)[C@@H](O[C@H]2C[C@@](C)(OC)[C@](O)(CN3CCCCC3)[C@H](C)O2)[C@H](C)[C@@H](O[C@@H]2O[C@H](C)C[C@H](N(C)S(=O)(=O)Nc3ccc(C)cc3)[C@H]2O)[C@](C)(O)C[C@@H](C)CN[C@H](C)[C@@H](O)[C@]1(C)O` [Example C-32], the IC50 in the assay with TNF-α worked out at 5 µM; in the assay on IL-6, 8 µM.
In the same order, the values of `CCCN([C@H]1C[C@@H](C)O[C@@H](O[C@@H]2[C@@H](C)[C@H](O[C@H]3C[C@@](C)(OC)[C@](O)(CN4CCCCC4)[C@H](C)O3)[C@@H](C)C(=O)O[C@H](CC)[C@@](C)(O)[C@H](O)[C@@H](C)NC[C@H](C)C[C@@]2(C)O)[C@@H]1O)S(=O)(=O)c1ccc(Cl)cc1` [Example C-40] are 5 µM and 4 µM.
For `CC[C@H]1OC(=O)[C@H](C)[C@@H](O[C@H]2C[C@@](C)(OC)[C@](O)(CN3CCCCC3)[C@H](C)O2)[C@H](C)[C@@H](O[C@@H]2O[C@H](C)C[C@H](N(C)S(=O)(=O)c3ccc(F)cc3)[C@H]2O)[C@](C)(O)C[C@@H](C)CN[C@H](C)[C@@H](O)[C@]1(C)O` [Example C-19], the IC50 turned out to be 5 µM in the assay with TNF-α and 7 µM with IL-6.
In the same order, the values of `CC[C@H]1OC(=O)[C@H](C)[C@@H](O[C@H]2C[C@@](C)(OC)[C@](O)(CN3CCCCC3)[C@H](C)O2)[C@H](C)[C@@H](O[C@@H]2O[C@H](C)C[C@H](N(C)S(=O)(=O)c3ccc(C(F)(F)F)cc3)[C@H]2O)[C@](C)(O)C[C@@H](C)CN[C@H](C)[C@@H](O)[C@]1(C)O` [Example C-18] are 6 µM and 5 µM.
Turning to `CCCN1C[C@H](C)C[C@@](C)(O)[C@H](O[C@@H]2O[C@H](C)C[C@H](N(C)S(N)(=O)=O)[C@H]2O)[C@@H](C)[C@H](O[C@H]2C[C@@](C)(OC)[C@](O)(CNc3ccc(OC)cc3)[C@H](C)O2)[C@@H](C)C(=O)O[C@H](CC)[C@@](C)(O)[C@H](O)[C@H]1C` [Example B-157], the IC50 in the assay with TNF-α is 22 µM; with IL-6, 31 µM.
Take `CC[C@H]1OC(=O)[C@H](C)[C@@H](O[C@H]2C[C@@](C)(OC)[C@](O)(CN3CCCCC3)[C@H](C)O2)[C@H](C)[C@@H](O[C@@H]2O[C@H](C)C[C@H](N(C)S(=O)(=O)Nc3ccc(C)c(C)c3)[C@H]2O)[C@](C)(O)C[C@@H](C)CN[C@H](C)[C@@H](O)[C@]1(C)O` [Example C-33]: the IC50 with TNF-α and in the assay with IL-6 was 7 µM in each case.
`CC[C@H]1OC(=O)[C@H](C)[C@@H](O[C@H]2C[C@@](C)(OC)[C@](O)(CN3CCCCC3)[C@H](C)O2)[C@H](C)[C@@H](O[C@@H]2O[C@H](C)C[C@H](N(C)S(=O)(=O)c3nccn3C)[C@H]2Oc2ccc(F)cc2)[C@](C)(O)C[C@@H](C)CN[C@H](C)[C@@H](O)[C@]1(C)O` [Example C-56]: the 50% inhibitory concentration (IC50) is 5 µM in the assay on TNF-α and 4 µM in the assay with IL-6.
In the same order, the values of `CC[C@H]1OC(=O)[C@H](C)[C@@H](O[C@H]2C[C@@](C)(OC)[C@](O)(CN3CCCCC3)[C@H](C)O2)[C@H](C)[C@@H](O[C@@H]2O[C@H](C)C[C@H](N(C)S(=O)(=O)Nc3cccc(Cl)c3)[C@H]2O)[C@](C)(O)C[C@@H](C)CN[C@H](C)[C@@H](O)[C@]1(C)O` [Example C-23] are 9 µM and 10 µM.
In the same order, the values of `CCCNC[C@]1(O)[C@H](C)O[C@@H](O[C@H]2[C@H](C)[C@@H](O[C@@H]3O[C@H](C)C[C@H](N(CC(C)C)S(=O)(=O)c4ccc(OC)cc4)[C@H]3O)[C@](C)(O)C[C@@H](C)CN[C@H](C)[C@@H](O)[C@](C)(O)[C@@H](CC)OC(=O)[C@@H]2C)C[C@@]1(C)OC` [Example B-149] are 7 µM and 8 µM.
For the compound `CC[C@H]1OC(=O)[C@H](C)[C@@H](O[C@H]2C[C@@](C)(OC)[C@](O)(CNCc3ccncc3)[C@H](C)O2)[C@H](C)[C@@H](O[C@@H]2O[C@H](C)C[C@H](N(C)S(=O)(=O)Nc3ccc(C(F)(F)F)cc3)[C@H]2O)[C@](C)(O)C[C@@H](C)CN[C@H](C)[C@@H](O)[C@]1(C)O` [Example B-89], the IC50 worked out at 9 µM in the assay with TNF-α and 23 µM with IL-6.
With `CC[C@H]1OC(=O)[C@H](C)[C@@H](O[C@H]2C[C@@](C)(OC)[C@](O)(CNc3ccc(OC)cc3)[C@H](C)O2)[C@H](C)[C@@H](O[C@@H]2O[C@H](C)C[C@H](N(C)S(=O)(=O)c3ccc(Cl)cc3)[C@H]2O)[C@](C)(O)C[C@@H](C)CN[C@H](C)[C@@H](O)[C@]1(C)O` [Example B-27], the IC50 was determined as 17 µM with TNF-α and 33 µM in the assay with IL-6.
As to `CC[C@H]1OC(=O)[C@H](C)[C@@H](O[C@H]2C[C@@](C)(OC)[C@](O)(CNCc3ccccc3)[C@H](C)O2)[C@H](C)[C@@H](O[C@@H]2O[C@H](C)C[C@H](N(C)S(=O)(=O)c3nccn3C)[C@H]2Oc2ccc(F)cc2)[C@](C)(O)C[C@@H](C)CN[C@H](C)[C@@H](O)[C@]1(C)O` [Example B-141], the figures for the IC50 in the assay with TNF-α and in the assay with IL-6 were 7 µM and 4 µM, respectively.
In the same order, the values of `CCCNC[C@]1(O)[C@H](C)O[C@@H](O[C@H]2[C@H](C)[C@@H](O[C@@H]3O[C@H](C)C[C@H](N(CC(C)C)S(=O)(=O)c4ccc(Cl)cc4)[C@H]3O)[C@](C)(O)C[C@@H](C)CN[C@H](C)[C@@H](O)[C@](C)(O)[C@@H](CC)OC(=O)[C@@H]2C)C[C@@]1(C)OC` [Example B-150] are 4 µM and 5 µM.

For the origin of these results see patent US20250236616A1, “IMMUNOMODULATING AZALIDES” (Zoetis Services LLC, priority 2021, published 2025).
